According to patent US7842479B2 (priority 2004, dated 2010):
“Also recorded” adds a separate entry of the source. Counter-ions that a name gives are not always drawn. Like-named read-outs stand apart in the source and are kept apart here.

Key:
[1] = system: cidABC and lrgAB transcription; format: cell-based, S. aureus
S. aureus UAMS-1 = format: cell-based
[2] = system: S. aureus KB1050 (cidA mutant); format: cell-based
SH1000 strain [3] = format: cell-based
8325-4 strain [4] = format: cell-based
SH1000 strain [5] = format: cell-based; remark: listed apart in the source
8325-4 strain [6] = system: 8325-4 strain
[7] = system: cidC-encoded pyruvate oxidase; format: biochemical, S. aureus

For `Cl` [HCl], the “cidABC and lrgAB expression” value ([1]; pH 5) was “elevated the expression of cidABC relative to growth in neutral media”.
`CO[C@H]1/C=C/O[C@@]2(C)Oc3c(C)c(O)c4c(O)c(c(/C=N/N5CCN(C)CC5)c(O)c4c3C2=O)NC(=O)/C(C)=C\C=C\[C@H](C)[C@H](O)[C@@H](C)[C@@H](O)[C@@H](C)[C@H](OC(C)=O)[C@@H]1C` [rifampin] was tested, and the “decrease in viable cell counts” value (S. aureus UAMS-1) was “three log decrease in viable cell counts; also recorded: just over one log decrease”, the “rifampin sensitivity relative to UAMS-1” value [2] was “decreased rifampin sensitivity relative to UAMS-1” and the “viable cell counts compared to UAMS-1 after incubation with rifampin” value [2] was “greater than one log unit higher viable cell counts”. The “loss of viable cell counts” value (SH1000 strain [3]) was “lose two log units of viable cell counts”, the “loss of viable cell counts” value (8325-4 strain [4]) was “lose two log units of viable cell counts” and the loss of viability (SH1000 strain [5]) was “two log loss of viability”. The “difference in viable cell counts determined using the two methods” value (8325-4 strain [6]) was “greater than 1,000 fold” and the viability (8325-4 strain [6]; Staphylococcus aureus) was about 100%.
For `OCC(O)CO` [glycerol], the “pyruvate oxidase activity with carbon source added instead of sodium pyruvate” value (“pyruvate oxidase activity” below) [7] was “the only one that possessed activity was the phosphoenol pyruvate”.
`C=C(OP(=O)(O)O)C(=O)O` [phosphoenol pyruvate] was tested, and the “pyruvate oxidase activity” value [7] was “approximately half of what was seen with sodium pyruvate”.
For `CC(=O)O` [acetic acid], the cidABC expression [1] was “dramatically increased expression of cidABC”, the “cidABC and lrgAB expression” value ([1]; pH 5) was “pronounced positive effect on both cidABC and lrgAB expression” and the alsSD expression (alsSD transcription) was “dramatically increased expression of alsSD at all time points tested”.
With `CC(=O)[O-].[Na+]` [Na-acetate, sodium acetate] the “cidABC and lrgAB expression” value ([1]; pH 4.5) was “dramatically increased” and the “cidABC and lrgAB expression” value ([1]; pH 6.5) was “undetectable”.
`CC(=O)[O-].[K+]` [potassium acetate] was tested, and the “pyruvate oxidase activity” value [7] was “the only one that possessed activity was the phosphoenol pyruvate”.
With `[Cl-].[Na+]` [NaCl, sodium chloride] the “cidABC and lrgAB expression” value ([1]; pH 4.5) was “not detected at any of the pH values tested”.
`CC(O)C(=O)[O-].[Na+]` (stereo not shown) [sodium lactate] was tested, and the “pyruvate oxidase activity” value [7] was “the only one that possessed activity was the phosphoenol pyruvate”.
